Laboratory results as given in US12622910B2, “Inhibitors of Bruton's tyrosine kinase and methods of their use” (Janssen Pharmaceutica NV, priority 2021, dated 2026).

Key:
[1] = biological target: M2 (h) (Homo sapiens, UniProt P08172); assay: Receptor panel, Study 1; type: binding
Method: (§1) RESULTS AND DISCUSSION—Selectivity—The compound of Formula (III) was evaluated in three selectivity panels to assess the potential for off-target pharmacology (Table 8). […] The kinase off-target profile of The compound of Formula (III) was assessed in a full human wild-type panel using radiometric kinase activity assays (KinaseProfiler™ and IC50Profiler™; Eurofins Scientific) (Table 9; FIG. 23). The compound of Formula (III) inhibited 4/278 kinases >50% at 1 micromolar, identifying BTK and the three other kinases having analogous Cys residues with the potential for covalent inhibition (BMX, TEC, BLK). […]. The cellular kinase selectivity of The compound of Formula (III) was established in native Ramos B cell kinome assays (KiNativ™; ActivX) confirmed BTK as the primary target with inhibition of BLK and TEC inhibition detected (Table 10).

[2] = biological target: 5-HT Transporter (h) (Homo sapiens, UniProt P31645); assay: Receptor panel, Study 1; type: binding
Method: as §1

[3] = biological target: H1 (h) (Homo sapiens, UniProt P35367); assay: Receptor panel, Study 1; type: binding
Method: as §1

[4] = biological target: 5-HT3 (h) (Homo sapiens, UniProt P46098); assay: Receptor panel, Study 1; type: binding
Method: as §1

[5] = biological target: T1, CYP2C9 (Homo sapiens, UniProt P11712); assay: CYP inhibition in human liver microsomes; type: in vitro ADME
T1 construct: with specific CYP probe substrates in human liver microsomes; from tissue; host or cells: human liver microsomes
Method: (§2) The potential of the compound of Formula (III) to inhibit human CYP450s in vitro was investigated up to test concentrations of 50 μM by incubating the compound of Formula (III) with specific CYP probe substrates in human liver microsomes and measuring probe metabolite formation.

[6] = biological target: T2, CYP2C19 (Homo sapiens, UniProt P33261); assay: CYP inhibition in human liver microsomes; type: in vitro ADME; conditions: probe S-Mephenytoin
T2 construct: with specific CYP probe substrates in human liver microsomes; from tissue; host or cells: human liver microsomes
Method: as §2

[7] = biological target: T3, CYP3A4 (Homo sapiens, UniProt P08684); assay: CYP inhibition in human liver microsomes; type: in vitro ADME
T3 construct: with specific CYP probe substrates in human liver microsomes; from tissue; host or cells: human liver microsomes
Method: as §2

[8] = biological target: T4, CYP2A6 (Homo sapiens, UniProt P11509); assay: CYP inhibition in human liver microsomes; type: in vitro ADME; conditions: probe Coumarin
T4 construct: with specific CYP probe substrates in human liver microsomes; from tissue; host or cells: human liver microsomes
Method: as §2

[9] = biological target: T5, CYP2E1 (Homo sapiens, UniProt P05181); assay: CYP inhibition in human liver microsomes; type: in vitro ADME; conditions: probe Chlorzoxazone
T5 construct: with specific CYP probe substrates in human liver microsomes; from tissue; host or cells: human liver microsomes
Method: as §2

[10] = biological target: T6, CYP1A2 (Homo sapiens, UniProt P05177); assay: CYP inhibition in human liver microsomes; type: in vitro ADME; conditions: probe Phenacetin
T6 construct: with specific CYP probe substrates in human liver microsomes; from tissue; host or cells: human liver microsomes
Method: as §2

[11] = biological target: T7, CYP2C8 (Homo sapiens, UniProt P10632); assay: CYP inhibition in human liver microsomes; type: in vitro ADME; conditions: probe Amodiaquine
T7 construct: with specific CYP probe substrates in human liver microsomes; from tissue; host or cells: human liver microsomes
Method: as §2

[12] = biological target: T8, CYP2B6 (Homo sapiens, UniProt P20813); assay: CYP inhibition in human liver microsomes; type: in vitro ADME; conditions: probe Bupropion
T8 construct: with specific CYP probe substrates in human liver microsomes; from tissue; host or cells: human liver microsomes
Method: as §2

[13] = biological target: T9, CYP2D6 (Homo sapiens, UniProt P10635); assay: CYP inhibition in human liver microsomes; type: in vitro ADME; conditions: probe Dextromethorphan
T9 construct: with specific CYP probe substrates in human liver microsomes; from tissue; host or cells: human liver microsomes
Method: as §2

[14] = biological target: BTK (Homo sapiens, UniProt Q06187); assay: Phase 1 study, BTK occupancy in PBMCs; type: in vivo; design: measuring free BTK levels in peripheral blood mononuclear cells (PBMCs) and calculating % BTKO; endogenous in cells; host or cells: human PBMCs, lysed after isolation from whole blood; conditions: for BTKO at 24 hr, ss, median observed / Calculated Average BTKO, observed / Max BTKO at ss, median observed: Day 10 oral solution; for mean BTKO: all MAD dose groups
Method: Pharmacodynamics (BTKO)—In Part 1, venous blood samples (8 mL) were collected predose and at 1, 2, 4, 8, 12, 24, 48, and 72 hours post-dose for measuring free BTK levels in peripheral blood mononuclear cells (PBMCs) and calculating % BTKO. In Part 2, blood samples were taken on day 1 predose and at 2, 4, and 8 hours after dosing; days 2-10 predose and 4 hours post-dose; and at 24, 48, and 72 hours after the last dose and at the follow-up visit.
After PBMCs were isolated from whole blood, they were lysed and prepared for the measurement of BTK occupancy using a custom streptavidin-coated Meso Scale Discovery (MSD) immunoassay. Percent occupancy was calculated as 100%×([Baseline free BTK−Free BTK with treatment]/Baseline Free BTK).

[15] = Covalent binding to hepatic proteins in human hepatocytes (14C label); type: in vitro ADME
Method: The extent of the compound of Formula (III) covalent binding to hepatic proteins was determined in human hepatocytes at 1 and 10 μM (Table 19). A ^14C label was introduced at the acrylamide carbonyl carbon of the compound of Formula (III). […] Troglitazone and pioglitazone served as positive and negative controls, respectively.

Sequence of BTK (Q06187 whole entry): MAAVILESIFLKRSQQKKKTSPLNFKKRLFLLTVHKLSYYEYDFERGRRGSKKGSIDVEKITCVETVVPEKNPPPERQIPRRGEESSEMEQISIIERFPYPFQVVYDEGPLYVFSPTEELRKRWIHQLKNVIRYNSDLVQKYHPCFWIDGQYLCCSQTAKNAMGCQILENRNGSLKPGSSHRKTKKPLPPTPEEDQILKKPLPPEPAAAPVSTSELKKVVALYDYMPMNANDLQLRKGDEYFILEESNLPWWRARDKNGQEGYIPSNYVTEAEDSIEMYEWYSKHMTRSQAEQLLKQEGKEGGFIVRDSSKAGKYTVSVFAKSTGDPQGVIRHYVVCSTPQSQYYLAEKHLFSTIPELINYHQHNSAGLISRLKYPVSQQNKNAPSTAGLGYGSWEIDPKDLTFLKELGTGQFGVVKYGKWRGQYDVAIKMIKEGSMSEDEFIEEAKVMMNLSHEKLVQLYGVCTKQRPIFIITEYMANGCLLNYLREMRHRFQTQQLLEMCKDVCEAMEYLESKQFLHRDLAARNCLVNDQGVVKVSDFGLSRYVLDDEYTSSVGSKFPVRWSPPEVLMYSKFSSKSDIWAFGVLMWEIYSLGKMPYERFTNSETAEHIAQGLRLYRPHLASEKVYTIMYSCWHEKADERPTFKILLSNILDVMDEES
T3 sequence (P08684 whole entry): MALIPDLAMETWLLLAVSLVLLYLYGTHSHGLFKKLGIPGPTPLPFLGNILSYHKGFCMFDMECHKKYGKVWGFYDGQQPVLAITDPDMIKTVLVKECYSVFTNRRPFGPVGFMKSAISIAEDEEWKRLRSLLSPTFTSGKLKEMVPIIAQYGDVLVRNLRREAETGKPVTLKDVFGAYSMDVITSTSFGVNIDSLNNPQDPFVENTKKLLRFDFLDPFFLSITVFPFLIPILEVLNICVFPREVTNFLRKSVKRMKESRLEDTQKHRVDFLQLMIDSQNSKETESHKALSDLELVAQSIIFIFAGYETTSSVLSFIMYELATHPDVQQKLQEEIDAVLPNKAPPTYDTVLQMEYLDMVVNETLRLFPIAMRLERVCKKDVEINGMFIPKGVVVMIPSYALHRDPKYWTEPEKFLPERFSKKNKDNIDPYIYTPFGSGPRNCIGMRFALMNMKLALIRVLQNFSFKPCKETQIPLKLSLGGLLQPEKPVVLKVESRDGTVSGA
T1 sequence (P11712 whole entry): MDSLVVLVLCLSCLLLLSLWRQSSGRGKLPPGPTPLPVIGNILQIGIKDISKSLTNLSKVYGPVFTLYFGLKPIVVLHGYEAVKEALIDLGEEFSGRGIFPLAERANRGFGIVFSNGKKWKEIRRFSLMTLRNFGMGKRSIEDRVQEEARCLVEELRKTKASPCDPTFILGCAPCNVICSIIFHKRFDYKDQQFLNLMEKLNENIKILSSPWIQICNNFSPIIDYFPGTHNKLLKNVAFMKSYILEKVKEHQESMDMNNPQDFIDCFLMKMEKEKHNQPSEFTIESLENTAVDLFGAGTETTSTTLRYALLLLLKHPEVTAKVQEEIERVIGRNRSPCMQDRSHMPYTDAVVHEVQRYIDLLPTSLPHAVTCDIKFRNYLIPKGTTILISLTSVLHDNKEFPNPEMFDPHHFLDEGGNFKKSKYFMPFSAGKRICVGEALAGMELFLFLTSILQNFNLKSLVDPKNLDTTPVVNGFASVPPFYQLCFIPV
T5 sequence (P05181 whole entry): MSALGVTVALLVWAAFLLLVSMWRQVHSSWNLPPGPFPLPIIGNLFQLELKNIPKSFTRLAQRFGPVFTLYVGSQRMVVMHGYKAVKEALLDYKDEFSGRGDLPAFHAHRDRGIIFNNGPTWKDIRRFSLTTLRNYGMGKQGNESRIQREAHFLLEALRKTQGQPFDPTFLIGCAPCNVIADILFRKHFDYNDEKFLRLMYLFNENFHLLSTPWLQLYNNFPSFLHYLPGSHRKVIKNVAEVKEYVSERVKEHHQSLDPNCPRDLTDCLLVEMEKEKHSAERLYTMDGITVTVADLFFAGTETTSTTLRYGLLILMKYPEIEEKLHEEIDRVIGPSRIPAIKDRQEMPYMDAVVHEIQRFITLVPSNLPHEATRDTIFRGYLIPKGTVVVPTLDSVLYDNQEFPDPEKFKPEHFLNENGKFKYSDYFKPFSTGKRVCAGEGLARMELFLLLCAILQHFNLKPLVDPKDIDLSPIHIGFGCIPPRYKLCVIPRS
T2 sequence (P33261 whole entry): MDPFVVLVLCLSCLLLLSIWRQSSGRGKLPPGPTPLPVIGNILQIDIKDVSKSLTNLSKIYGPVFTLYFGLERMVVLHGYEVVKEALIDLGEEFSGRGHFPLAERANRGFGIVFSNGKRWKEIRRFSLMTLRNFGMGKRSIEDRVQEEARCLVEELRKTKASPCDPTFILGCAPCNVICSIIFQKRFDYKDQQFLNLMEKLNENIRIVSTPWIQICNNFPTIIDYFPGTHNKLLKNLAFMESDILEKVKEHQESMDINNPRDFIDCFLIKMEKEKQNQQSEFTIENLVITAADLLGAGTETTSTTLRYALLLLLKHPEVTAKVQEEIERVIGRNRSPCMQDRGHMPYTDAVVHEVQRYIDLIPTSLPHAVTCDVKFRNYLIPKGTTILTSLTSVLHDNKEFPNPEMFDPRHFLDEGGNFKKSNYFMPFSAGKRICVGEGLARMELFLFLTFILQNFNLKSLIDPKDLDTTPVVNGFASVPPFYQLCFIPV
Sequence of M2 (h) (P08172 whole entry): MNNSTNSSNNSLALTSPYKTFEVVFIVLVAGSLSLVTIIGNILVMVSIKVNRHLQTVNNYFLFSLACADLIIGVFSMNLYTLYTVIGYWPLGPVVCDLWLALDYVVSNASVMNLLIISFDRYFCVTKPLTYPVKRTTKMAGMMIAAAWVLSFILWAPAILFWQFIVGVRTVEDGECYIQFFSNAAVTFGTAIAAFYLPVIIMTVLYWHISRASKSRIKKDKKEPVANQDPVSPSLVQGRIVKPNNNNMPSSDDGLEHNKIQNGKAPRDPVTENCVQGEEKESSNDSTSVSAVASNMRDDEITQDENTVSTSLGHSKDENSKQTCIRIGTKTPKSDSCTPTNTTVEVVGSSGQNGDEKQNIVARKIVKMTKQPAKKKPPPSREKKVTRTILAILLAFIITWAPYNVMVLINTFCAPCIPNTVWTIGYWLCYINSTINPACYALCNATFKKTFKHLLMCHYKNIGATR
T8 sequence (P20813 whole entry): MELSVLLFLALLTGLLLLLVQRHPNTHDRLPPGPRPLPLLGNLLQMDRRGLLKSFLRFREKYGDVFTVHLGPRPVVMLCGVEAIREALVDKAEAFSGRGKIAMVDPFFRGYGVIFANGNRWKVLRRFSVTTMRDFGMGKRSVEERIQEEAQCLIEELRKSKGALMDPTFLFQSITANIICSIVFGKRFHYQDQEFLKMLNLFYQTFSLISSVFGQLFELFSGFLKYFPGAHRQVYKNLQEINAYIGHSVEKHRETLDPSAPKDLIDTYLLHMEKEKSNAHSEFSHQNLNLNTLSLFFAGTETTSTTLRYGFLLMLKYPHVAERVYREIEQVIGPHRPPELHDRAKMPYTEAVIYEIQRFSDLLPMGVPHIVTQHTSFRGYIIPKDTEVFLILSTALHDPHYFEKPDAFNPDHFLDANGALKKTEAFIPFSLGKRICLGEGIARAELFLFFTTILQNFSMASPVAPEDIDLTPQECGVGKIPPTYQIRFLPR
Sequence of 5-HT Transporter (h) (P31645 whole entry): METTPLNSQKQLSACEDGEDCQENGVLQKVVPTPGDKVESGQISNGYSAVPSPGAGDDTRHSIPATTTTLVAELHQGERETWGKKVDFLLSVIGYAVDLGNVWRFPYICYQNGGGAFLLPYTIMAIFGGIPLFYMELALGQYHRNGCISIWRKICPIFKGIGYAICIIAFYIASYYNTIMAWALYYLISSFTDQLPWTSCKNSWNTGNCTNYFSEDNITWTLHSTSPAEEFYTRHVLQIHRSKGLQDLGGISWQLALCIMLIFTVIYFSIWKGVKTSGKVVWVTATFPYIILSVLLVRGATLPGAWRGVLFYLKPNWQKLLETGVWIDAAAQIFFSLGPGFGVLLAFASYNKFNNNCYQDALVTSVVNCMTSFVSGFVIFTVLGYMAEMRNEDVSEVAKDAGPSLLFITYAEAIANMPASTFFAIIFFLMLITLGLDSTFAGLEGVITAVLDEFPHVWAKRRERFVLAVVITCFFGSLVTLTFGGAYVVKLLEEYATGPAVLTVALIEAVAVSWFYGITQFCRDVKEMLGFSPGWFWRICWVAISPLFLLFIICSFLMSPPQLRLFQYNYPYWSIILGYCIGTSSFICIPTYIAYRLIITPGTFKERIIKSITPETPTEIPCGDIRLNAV
T4 sequence (P11509 whole entry): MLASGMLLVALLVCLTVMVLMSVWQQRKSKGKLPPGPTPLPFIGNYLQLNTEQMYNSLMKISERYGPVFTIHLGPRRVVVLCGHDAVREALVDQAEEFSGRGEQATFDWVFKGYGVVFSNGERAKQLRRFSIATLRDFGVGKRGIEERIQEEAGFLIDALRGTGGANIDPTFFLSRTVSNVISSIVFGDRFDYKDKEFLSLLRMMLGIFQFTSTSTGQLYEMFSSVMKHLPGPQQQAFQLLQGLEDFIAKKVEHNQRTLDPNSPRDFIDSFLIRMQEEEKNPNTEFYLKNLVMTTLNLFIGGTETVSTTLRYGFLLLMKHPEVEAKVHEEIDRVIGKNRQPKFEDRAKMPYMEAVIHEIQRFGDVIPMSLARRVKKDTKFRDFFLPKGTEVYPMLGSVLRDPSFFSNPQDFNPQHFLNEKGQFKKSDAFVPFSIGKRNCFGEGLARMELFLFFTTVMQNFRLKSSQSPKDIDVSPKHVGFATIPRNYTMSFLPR

C=CC(=O)N[C@H]1CCC[C@H]1NC(=O)c1sc2nccc3c2c1NC(=O)N3c1cnc(CC(C)C)cc1C (atropisomer, axis not shown) [compound of Formula (III), N-((1R,2S)-2-Acrylamidocyclopentyl)-5-(S)-(6-isobutyl-4-methylpyridin-3-yl)-4-oxo-4,5-dihydro-3H-1-thia-3,5,8-triazaacenaphthylene-2-carboxamide]
inhibition at 10 µM [1]: < 10%
inhibition at 10 µM [2]: < 10%
inhibition at 10 µM [3]: < 10%
inhibition at 10 µM [4]: < 10%
IC50 ([5]; probe Diclofenac): 3 µM
IC50 ([5]; probe Tolbutamide): 5.3 µM
IC50 [6]: > 50 µM
IC50 ([7]; probe Midazolam): 25 µM
IC50 ([7]; probe Nifedipine): > 50 µM
IC50 ([7]; probe Testosterone): 40 µM
IC50 [8]: > 50 µM
IC50 [9]: > 50 µM
IC50 [10]: > 50 µM
IC50 [11]: 16 µM
IC50 [12]: > 50 µM
IC50 [13]: 26 µM
BTKO at 24 hr, ss, median observed ([14]; 36 mg QD): 69.5%
Calculated Average BTKO, observed ([14]; 36 mg QD): 74.2%
Max BTKO at ss, median observed ([14]; 36 mg QD): 78.9%
mean % BTKO ([14]; 36 mg QD, day 1, 4 hours): 34%
mean % BTKO ([14]; 36 mg QD, day 10, 4 hours): 80%
BTKO at 24 hr, ss, median observed ([14]; 100 mg QD): 84.1%
Calculated Average BTKO, observed ([14]; 100 mg QD): 89.1%
Max BTKO at ss, median observed ([14]; 100 mg QD): 94.1%
mean % BTKO ([14]; 100 mg QD, day 1, 4 hours): 61%
mean % BTKO ([14]; 100 mg QD, day 10, 4 hours): 91%
BTKO at 24 hr, ss, median observed ([14]; 200 mg QD): 78.9%
Calculated Average BTKO, observed ([14]; 200 mg QD): 88.8%
Max BTKO at ss, median observed ([14]; 200 mg QD): 98.8%
mean % BTKO ([14]; 200 mg QD, day 1, 4 hours): 94%
mean % BTKO ([14]; 200 mg QD, day 10, 4 hours): 98%
mean % BTKO lower, capsule vs solution ([14]; 4 hours post-dose): ≈ 37%
mean % BTKO lower, capsule vs solution ([14]; 24 hours post-dose): ≈ 30%
mean % BTKO at follow-up visit (7-14 days) ([14]; Part 1, all treatment groups): ≤ 42%
mean % BTKO at follow-up visit (7 to 14 days) ([14]; Part 2, all treatment groups): < 40%
mean BTKO ([14]; 24 hours after Day 10 dose): above 65%
mean BTKO ([14]; 72 hours after Day 10 dose): > 30%
mean % BTKO ([14]; single 36 mg, females, 4 hours): 55%
mean % BTKO ([14]; single 36 mg, males, 4 hours): 39%
peak mean % BTKO ([14]; single 100 mg solution, fed, 8 hours post-dose): 73%
mean % BTKO ([14]; single 100 mg solution, male fasted, 4 hours post-dose): 86%
mean % BTKO ([14]; single 100 mg, females, 4 hours): 81%
mean % BTKO ([14]; single 105 mg capsule, 4 hours): 54%
mean % BTKO ([14]; single 105 mg capsule, 24 hours): 53%
maximum % BTKO (mean) ([14]; single and multiple doses ≥100 mg): ≥ 90%
duration of BTKO ([14]; single doses ≥100 mg): up to 72 hours
% BTKO ([14]; single doses ≥100 mg, male fasted, 4 hours): ~100%
Compound Turnover ([15]; 1 μM study): 49.1%
Fraction Covalently Bound (fcvb) ([15]; 1 μM study): 0.07 ± 0.01
Net Covalent Binding ([15]; 1 μM study, 0.5×10^6 cells/mL, 4.5 h): 46.8 ± 5.1 pmol eq/mg protein
Compound Turnover ([15]; 10 μM study): 70.1%
Fraction Covalently Bound (fcvb) ([15]; 10 μM study): 0.00564 ± 0.0001
Net Covalent Binding ([15]; 10 μM study, 0.75×10^6 cells/mL, 3 h): 50.0 ± 0.8 pmol eq/mg protein
